# According to patent US20080057086A1, “COLON-TARGETED ORAL FORMULATIONS OF CYTIDINE ANALOGS” (PHARMION CORPORATION, priority 2006, published 2008):
# Where two headings read alike, the source gives them in different places.
# Assays:
# [1] = tested on: fetal hemoglobin production; conditions: baboons; IV, SC or PO route; PO needed co-administration of THU; 0.25 to 8 mg/kg/d with 20 mg/kg/d THU; cited from earlier work
# [2] = tested on: total hemoglobin, fetal hemoglobin and F cells; conditions: sickle cell patients, cited from earlier work
# total hemoglobin = conditions: β^0-thalassemic patient, cited from earlier work
# human colonic tissue = assay: Permeation enhancement in human colonic strips; assay type: in vitro ADME; conditions: without enzymatic inhibition (FIGS. 3, 4)
# Source text: (§1) This model allows evaluation of the absorption potential of drugs and differences in drug absorption across the human jejunum, ileum, and colon and is based on Ungell et al. “Membrane Transport of Drugs in Different Regions of the Intestinal Tract of the Rat”, J. Pharm. Sci. 87:360-366, (1998) and Nejdfors et al. “Mucosal in vitro Permeability in the Intestinal Tract of the Pig, the Rat, and Man: Species and Region Related Differences”, Scand. J. Gastroenterol. 35:501-507, (2000). Permeation experiments were performed for 5-azacytidine in the jejunal, ileal, and colonic tissues originating from the same human donor. Post-mortem human whole intestine was obtained from the International Institute for the Advancement of Medicine (IIAM). Tissues were used within 24 hours of the organ's removal. Tissues were maintained in cold transport media before being stripped. The segments were cut along the mesenteric border, the underlying musculature was stripped off, and the epithelium was rinsed with ice cold normal saline. The stripped tissues were mounted within the vertical USSING chambers (Harvard Apparatus, Holliston, Mass.). In these studies, 5-azacytidine permeability was measured in both absolute rate and relative to atenolol (internal control). In all cases the net apparent permeability was assessed in the mucosal to serosal direction only.
# [3] = Excipient compatibility studies; assay type: physicochemical
# [4] = Caco 2 monolayer permeability of 5-azacytidine with and without excipients; assay type: in vitro ADME; conditions: human
# Procedure: The Caco-2 cells are an intestinal epithelial cell line (human colon adenocarcinoma established from the primary colon tumor (adenocarcinoma)) Monolayers of Caco-2 cells are used to classify the intestinal absorption potential of a drug candidate molecule. The assay was carried out in accordance with P. Artursson and J. Karlsson, “Correlation between Oral Drug Absorption in Humans and Apparent Drug Permeability Coefficients in Human Intestinal Epithelial (Caco-2) Cells”, Biochem. Biophys. Res. Commun. 175, 880 (1991).
# Briefly, Caco-2 cells were grown to confluence on collagen-coated, microporous polycarbonate in 12-well plates. For the assay buffer, Dulbecco's Phosphate Buffered Saline at pH 7.4 was used. […] The test compound was then dosed on either the apical or basolateral side of the Caco-2 monolayer, and flux across the monolayer was determined both one and two hours after dosing. Results were compared to control high permeability compounds metoprolol and antipyrine and low permeability compounds atenolol and ranitidine, and were expressed as Papp (apparent permeability) compared to reference compound standards. Integrity of the monolayers was determine both before and after testing by measuring the […] electrical resistance (TEER) value. Apparent permeability is calculated as (dCr/dt)×Vr/(A×C0) where dCr/dt is the slope of the cumulative concentration in the receiver compartment versus time in micromolar per second, Vr is the volume of the receiver compartment in cubic centimeters, A is the area of the cell monolayer, and C0 is the measured initial donor concentration in micromolar.
# [5] = tested on: human intestinal tissue (jejunum, ileum, colon); assay: Permeability in viable human intestinal strips (USSING chambers), mucosal to serosal; assay type: in vitro ADME
# Source text: as §1
smiles,measurement,setting,value
"Nc1ncn([C@@H]2O[C@H](CO)[C@@H](O)[C@H]2O)c(=O)n1 [5-azacytidine, 4-amino-1-β-D-ribofuranosyl-1,3,5-triazin-2(1H)-one]",Fetal hemoglobin production,[1],induce fetal hemoglobin production
same,"Clinical response, SC without THU versus PO with THU",[2]; 2 mg/kg/d SC without THU versus 0.2 mg/kg/d PO with 200 mg/d THU,comparable clinical response
same,"Clinical response (total hemoglobin, fetal hemoglobin and F cell levels)",[2]; 5-azacytidine co-administered with THU,good clinical response
same,F reticulocyte production,[2]; oral 5-azacytidine 2 mg/kg/d alone,did not result in increased F reticulocyte production
same,Hemoglobin levels,total hemoglobin; 2 mg/d tid PO with co-administration of THU,did not result in increased hemoglobin levels
same,Hemoglobin levels,total hemoglobin; 2 mg/kg/d IV,measurable increase
same,Permeability with permeation enhancer,human colonic tissue; various concentrations of Labrafil,did not appear to affect
same,Permeability with permeation enhancer,human colonic tissue; various concentrations of TPGS,trend toward greater permeability with increasing levels of TPGS
same,Excipient compatibility,[3]; each excipient of the Example 3 formulation (Table 2),compatible with each excipient
same,Excipient compatibility,[3]; each excipient of the Example 4 formulation (Table 3),compatible with each excipient
same,Excipient compatibility,[3]; each excipient of the Example 6 formulation (Table 7),compatible with each excipient
same,Excipient compatibility,[3]; each excipient of the Example 7 formulation (Table 8),compatible with each excipient
same,Excipient compatibility,[3]; each excipient of the Example 8 formulation (Table 9),compatible with each excipient
same,Excipient compatibility,[3]; each excipient of the Example 9 formulation (Table 10),compatible with each excipient
same,Papp at 1000 micromolar,"[4]; Caco-2, pH 7.4, with Carboxymethyl Cellulose 0.1%",0.26 ± 0.09 ×10⁻⁶ cm/s
same,Papp at 1000 micromolar,"[4]; Caco-2, pH 7.4, with Chitosan 0.1%",0.15 ± 0.01 ×10⁻⁶ cm/s
same,Papp at 1000 micromolar,"[4]; Caco-2, pH 7.4, with Labrafil 0.001%",0.27 ± 0.02 ×10⁻⁶ cm/s
same,Papp at 1000 micromolar,"[4]; Caco-2, pH 7.4, with Labrafil 0.01%",0.23 ± 0.04 ×10⁻⁶ cm/s
same,Papp at 1000 micromolar,"[4]; Caco-2, pH 7.4, with Labrafil 0.05%",0.38 ± 0.13 ×10⁻⁶ cm/s
same,Papp at 1000 micromolar,"[4]; Caco-2, pH 7.4, with Labrafil 0.1%",0.34 ± 0.002 ×10⁻⁶ cm/s
same,Papp at 1000 micromolar,"[4]; Caco-2, pH 7.4, with Poloxamer F127 0.1%",0.13 ± 0.02 ×10⁻⁶ cm/s
same,Papp at 1000 micromolar,"[4]; Caco-2, pH 7.4, with Sodium Laurate 0.001%",0.19 ± 0.04 ×10⁻⁶ cm/s
same,Papp at 1000 micromolar,"[4]; Caco-2, pH 7.4, with Sodium Laurate 0.01%",0.19 ± 0.02 ×10⁻⁶ cm/s
same,Papp at 1000 micromolar,"[4]; Caco-2, pH 7.4, with Sodium Laurate 0.05%",0.17 ± 0.03 ×10⁻⁶ cm/s
same,Papp at 1000 micromolar,"[4]; Caco-2, pH 7.4, with Sodium Laurate 0.1%, high permeability due to toxic effects of sodium laurate on Caco 2 cells",15.8 ± 1.77 ×10⁻⁶ cm/s
same,Papp at 1000 micromolar,"[4]; Caco-2, pH 7.4, with Solutol 0.1%",0.26 ± 0.04 ×10⁻⁶ cm/s
same,Papp at 1000 micromolar,"[4]; Caco-2, pH 7.4, with TPGS 0.001%",0.33 ± 0.08 ×10⁻⁶ cm/s
same,Papp at 1000 micromolar,"[4]; Caco-2, pH 7.4, with TPGS 0.01%",0.3 ± 0.05 ×10⁻⁶ cm/s
same,Papp at 1000 micromolar,"[4]; Caco-2, pH 7.4, with TPGS 0.05%",0.45 ± 0.18 ×10⁻⁶ cm/s
same,Papp at 1000 micromolar,"[4]; Caco-2, pH 7.4, with TPGS 0.1%",0.38 ± 0.09 ×10⁻⁶ cm/s
same,Papp A→B at 1000 micromolar,"[4]; Caco-2, pH 7.4, read-out: Papp (apical to basolateral permeability)",0.15 ± 0.02 ×10⁻⁶ cm/s
same,Absolute mucosal to serosal permeability by intestinal region,"[5]; colon relative to jejunum and ileum, multiple donors (FIG. 1)",greatest in the colon
same,Effect of enzymatic inhibitors on absolute permeability,"[5]; with ketoconazole and THU, increase maximal in jejunum and ileum, relatively small in colon",increased the absolute permeability in all GI tract regions
